Results as given in patent publication US20230096028A1, “BICYCLIC HETEROCYCLYL COMPOUNDS AND USES THEREOF” (Revolution Medicines, Inc., priority 2019, published 2023).

Key:
[1] = test system: PC-9 cells (EGFR Ex19Del); assay: Potency Assay: pERK (SOS1 pERK IC50 Assay, AlphaLISA SureFire Ultra p-ERK1/2); type: cell-based; conditions: Homo sapiens; PC-9 cells (EGFR Ex19Del), 1 hour incubation, AlphaLISA p-ERK1/2; read-out: SOS1 pERK IC50
Method in brief: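 Cellular pERK1/2 by AlphaLISA SureFire Ultra after 1 h compound exposure (37° C., highest concentration 10 μM, 3-fold steps, duplicates) of EGFR Ex19Del PC-9 cells seeded the day before. A 4-parameter fit of signal versus log concentration gives IC50.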

[2] = molecular target: T1, SOS1 catalytic domain (residues 564-1049) (Homo sapiens, UniProt Q07889); assay: Potency Assay: binding affinity to SOS1 using Surface Plasmon Resonance (SPR); design: SOS1 catalytic domain (residues 564-1049) immobilized on a sensor chip; conditions: immobilized SOS1 catalytic domain (residues 564-1049), read-out: SOS1 SPR Equilibrium Kd
T1 sequence (Q07889 564-1049): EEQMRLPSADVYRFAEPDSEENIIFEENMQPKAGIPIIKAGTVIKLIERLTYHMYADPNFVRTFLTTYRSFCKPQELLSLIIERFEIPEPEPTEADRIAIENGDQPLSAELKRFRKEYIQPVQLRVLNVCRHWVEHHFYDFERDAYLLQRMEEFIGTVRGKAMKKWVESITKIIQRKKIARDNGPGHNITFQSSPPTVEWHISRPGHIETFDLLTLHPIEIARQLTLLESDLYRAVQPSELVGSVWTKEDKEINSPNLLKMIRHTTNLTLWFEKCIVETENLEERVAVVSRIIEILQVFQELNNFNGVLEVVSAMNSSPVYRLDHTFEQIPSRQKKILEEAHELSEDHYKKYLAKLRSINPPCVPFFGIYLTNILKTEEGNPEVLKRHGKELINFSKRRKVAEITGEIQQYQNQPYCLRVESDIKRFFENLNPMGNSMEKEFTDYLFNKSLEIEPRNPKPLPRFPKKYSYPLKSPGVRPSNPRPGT
Method in brief: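 Kd was obtained by plotting binding response, taken just before association ended, versus compound concentration on a Biacore 8K. Compounds flowed at 50 μL/min over streptavidin-captured avi-SOS1 catalytic domain (~6000 RU), followed by buffer dissociation; HEPES 0.01 M/NaCl 0.15 M/0.05% P20 buffer, double-referenced.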

[3] = molecular target: T1, SOS1 catalytic domain (residues 564-1049); assay: Mode of Action Assay: inhibition of SOS1 nucleotide exchange activity (SOS1 TR-FRET IC50 Assay)

| IC50 [1] [nM] | Kd [2] [nM] | IC50 [3] [nM] | Compound |
| --- | --- | --- | --- |
| < 1000 | > 400 | < 1000 | Cc1nc2c(c(N[C@H](C)c3cc(N)cc(C(F)(F)F)c3)n1)CC(C(=O)N1CCOCC1)C2 (stereo partly drawn) [Example 45, [4-[[(1R)-1-[3-amino-5-(trifluoromethyl)phenyl]ethyl]amino]-2-methyl-6,7-dihydro-5H-cyclopenta[d]pyrimidin-6-yl]-morpholino-methanone] |
| < 1000 | < 400 | < 1000 | C[C@@H](Nc1nc(Cl)nc2c1CN(S(=O)(=O)C1CC1)C2)c1cc(N)cc(C(F)(F)F)c1 [Example 52] |
| < 1000 | < 400 | < 1000 | COc1cnc(C(=O)N2Cc3nc(Cl)nc(N[C@H](C)c4cc(N)cc(C(F)(F)F)c4)c3C2)cc1OC [Example 59] |
| < 1000 | < 400 | > 1000 | COc1ncc(C(=O)N2Cc3nc(Cl)nc(N[C@H](C)c4cc(N)cc(C(F)(F)F)c4)c3C2)cn1 [Example 60] |
| < 1000 | < 400 | > 1000 | C[C@@H](Nc1nc(Cl)nc2c1CN(C(=O)c1ccc(OC(F)F)cn1)C2)c1cc(N)cc(C(F)(F)F)c1 [Example 61] |
| < 1000 | < 400 | > 1000 | COc1cc(C(=O)N2Cc3nc(Cl)nc(N[C@H](C)c4cc(N)cc(C(F)(F)F)c4)c3C2)ncn1 [Example 62] |
| < 1000 | < 400 | < 1000 | C[C@@H](Nc1nc(Cl)nc2c1CN(C(=O)c1cccnn1)C2)c1cc(N)cc(C(F)(F)F)c1 [Example 71] |
| < 1000 | < 400 | < 1000 | C[C@@H](Nc1nc(Cl)nc2c1CN(C(=O)c1ccncn1)C2)c1cc(N)cc(C(F)(F)F)c1 [Example 73] |
| < 1000 | > 400 | < 1000 | C[C@@H](Nc1nc(Cl)nc2c1CN(C(=O)c1cccc3c1OCCN3)C2)c1cc(N)cc(C(F)(F)F)c1 [Example 77] |
| < 1000 | < 400 | < 1000 | C[C@@H](Nc1nc(Cl)nc2c1CN(C(=O)c1ccnnc1)C2)c1cc(N)cc(C(F)(F)F)c1 [Example 78] |
| < 1000 | > 400 | > 1000 | C[C@@H](Nc1nc(Cl)nc2c1CN(C(=O)c1cccc(Cl)n1)C2)c1cc(N)cc(C(F)(F)F)c1 [Example 87] |
| > 1000 | < 400 | > 1000 | C[C@@H](Nc1nc(Cl)nc2c1CN(C(=O)c1csc(C3CCNCC3)n1)C2)c1cc(N)cc(C(F)(F)F)c1 [Example 92] |
| < 1000 | < 400 | < 1000 | COC1(C(=O)N2Cc3nc(Cl)nc(N[C@H](C)c4cc(N)cc(C(F)(F)F)c4)c3C2)CCOCC1 [Example 93] |
| < 1000 | < 400 | < 1000 | C[C@@H](Nc1nc(Cl)nc2c1CN(C(=O)c1cc(-n3ccnc3)ccn1)C2)c1cc(N)cc(C(F)(F)F)c1 [Example 104] |
| < 1000 | < 400 | < 1000 | COc1cccc(C(=O)N2Cc3nc(Cl)nc(N[C@H](C)c4cc(N)cc(C(F)(F)F)c4)c3C2)c1OC [Example 107] |

Continued, molecule first:

| Compound | IC50 [1] [nM] | Kd [2] [nM] | IC50 [3] [nM] |
| --- | --- | --- | --- |
| Cc1nc2c(c(N[C@H](C)c3cc(N)cc(C(F)(F)F)c3)n1)CN(S(C)(=O)=O)C2 [Example 46, (R)—N-(1-(3-amino-5-(trifluoromethyl)phenyl)ethyl)-2-methyl-6-(methylsulfonyl)-6,7-dihydro-5H-pyrrolo[3,4-d]pyrimidin-4-amine] | > 1000 | > 400 | > 1000 |
| Cc1nc2c(c(N[C@H](C)c3cc(N)cc(C(F)(F)F)c3)n1)CN(S(=O)(=O)C1CCOCC1)C2 [Example 47, N-[(1R)-1-[3-amino-5-(trifluoromethyl)phenyl]ethyl]-2-methyl-6-tetrahydropyran-4-ylsulfonyl-5,7-dihydropyrrolo[3,4-d]pyrimidin-4-amine] | < 1000 | < 400 | < 1000 |
| C[C@@H](Nc1nc(Cl)nc2c1CN(S(=O)(=O)C1CNC1)C2)c1cc(N)cc(C(F)(F)F)c1 [Example 48] | > 1000 | < 400 | < 1000 |
| C[C@@H](Nc1nc(Cl)nc2c1CN(S(=O)(=O)C1CCCNC1)C2)c1cc(N)cc(C(F)(F)F)c1 (stereo partly drawn) [Example 49] | < 1000 | < 400 | < 1000 |
| C[C@@H](Nc1nc(Cl)nc2c1CN(S(=O)(=O)C1CCOCC1)C2)c1cc(N)cc(C(F)(F)F)c1 [Example 51] | < 1000 | < 400 | < 1000 |
| CC(Nc1nc(Cl)nc2c1CN(C(=O)N1CCOCC1)C2)c1ccc(-c2ccccc2CO)s1 (stereo not drawn) [Example 53, [2-chloro-4-[1-[5-[2-(hydroxymethyl)phenyl]-2-thienyl]ethylamino]-5,7-dihydropyrrolo[3,4-d]pyrimidin-6-yl]-morpholino-methanone] | > 1000 | > 400 | > 1000 |
| C[C@@H](Nc1nc(Cl)nc2c1CN(C(=O)c1ccccn1)C2)c1cc(N)cc(C(F)(F)F)c1 [Example 65] | < 1000 | > 400 | < 1000 |
| C[C@@H](Nc1nc(Cl)nc2c1CN(C(=O)c1cc(N3CCOCC3)ccn1)C2)c1cc(N)cc(C(F)(F)F)c1 [Example 68] | < 1000 | < 400 | < 1000 |
| C[C@@H](Nc1nc(Cl)nc2c1CN(C(=O)c1ncccn1)C2)c1cc(N)cc(C(F)(F)F)c1 [Example 70] | < 1000 | > 400 | > 1000 |
| COc1nccc(C(=O)N2Cc3nc(Cl)nc(N[C@H](C)c4cc(N)cc(C(F)(F)F)c4)c3C2)n1 [Example 72] | < 1000 | > 400 | < 1000 |
| COc1nccnc1C(=O)N1Cc2nc(Cl)nc(N[C@H](C)c3cc(N)cc(C(F)(F)F)c3)c2C1 [Example 75] | < 1000 | < 400 | < 1000 |
| C[C@@H](Nc1nc(Cl)nc2c1CN(C(=O)c1ccc3c(n1)CCNC3)C2)c1cc(N)cc(C(F)(F)F)c1 [Example 82] | < 1000 | < 400 | < 1000 |
| C[C@@H](Nc1nc(Cl)nc2c1CN(C(=O)c1cccc(OC3CCOCC3)n1)C2)c1cc(N)cc(C(F)(F)F)c1 [Example 83] | < 1000 | > 400 | > 1000 |
| C[C@@H](Nc1nc(Cl)nc2c1CN(C(=O)c1ccc(N3CCOCC3)cn1)C2)c1cc(N)cc(C(F)(F)F)c1 [Example 84] | < 1000 | < 400 | > 1000 |
| C[C@@H](Nc1nc(Cl)nc2c1CN(C(=O)c1ncccc1C(F)(F)F)C2)c1cc(N)cc(C(F)(F)F)c1 [Example 86] | < 1000 | < 400 | < 1000 |
| C[C@@H](Nc1nc(Cl)nc2c1CN(C(=O)c1cnc3[nH]ccc3c1)C2)c1cc(N)cc(C(F)(F)F)c1 [Example 91] | < 1000 | > 400 | > 1000 |
| C[C@@H](Nc1nc(Cl)nc2c1CN(C(=O)C1C3COCC31)C2)c1cc(N)cc(C(F)(F)F)c1 (stereo partly drawn) [Example 94] | < 1000 | < 400 | < 1000 |
| C[C@@H](Nc1nc(Cl)nc2c1CN(C(=O)C1CCN(C)C1)C2)c1cc(N)cc(C(F)(F)F)c1 (stereo partly drawn) [Example 101] | < 1000 | < 400 | < 1000 |
| COc1ccc(CC(=O)N2Cc3nc(Cl)nc(N[C@H](C)c4cc(N)cc(C(F)(F)F)c4)c3C2)cc1OC [Example 102] | < 1000 | > 400 | > 1000 |
